In ChEMBL document CHEMBL1201862, “PubChem BioAssay data set” (2004):
Activity calls are given as the source filed them.

Tests used:
[1] = cytotoxicity toward DRD oncogenic fibroblasts, dose response, cell-based, non-viral oncogenic, luminescence (AID 1934); format: functional; conditions: Homo sapiens
[2] = target: T1, Galanin receptor type 3 (Homo sapiens, UniProt O60755); assay: Fluorescence-based cell-based primary high throughput dose response assay to identify antagonists of the Galanin Receptor 3 (GalR3).; format: functional
T1 sequence (O60755 whole entry): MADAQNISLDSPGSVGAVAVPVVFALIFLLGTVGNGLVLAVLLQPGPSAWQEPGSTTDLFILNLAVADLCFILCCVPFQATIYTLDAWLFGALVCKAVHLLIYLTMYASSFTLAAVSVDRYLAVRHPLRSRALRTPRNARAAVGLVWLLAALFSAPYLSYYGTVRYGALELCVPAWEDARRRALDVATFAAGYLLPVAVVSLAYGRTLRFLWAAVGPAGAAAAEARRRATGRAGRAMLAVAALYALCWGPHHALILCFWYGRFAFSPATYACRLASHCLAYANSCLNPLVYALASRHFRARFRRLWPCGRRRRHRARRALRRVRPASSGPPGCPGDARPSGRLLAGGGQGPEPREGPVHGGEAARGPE

[3] = test system: BJ; assay: cells; format: functional, cell-based; conditions: Homo sapiens
[4] = test system: BJ; assay: cytotoxicity toward BJ-TERT fibroblasts, dose response, cell-based, RAS-independent, luminescence (AID 1933); format: functional; conditions: Homo sapiens
[5] = test system: INS1; assay: beta cell apoptosis inhibitors, cytokine rescue, dose response, luminescence, retest (AID 449756); format: functional, cell-based; conditions: Rattus norvegicus;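 also: cell death triggered by IL-1 beta plus TNF-alpha plus IFN-gamma mixture; protective hits raise ATP signal compared with cytokine alone wells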
[6] = cells; format: functional, cell-based; conditions: HEK-CNG
[7] = test system: BJ; assay: cytotoxicity toward BJ-TERT-LT-ST fibroblasts, dose response, cell-based, RAS-independent, luminescence (AID 1935); format: functional; conditions: Homo sapiens;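 also: BJ fibroblasts immortalized with TERT plus LT and ST oncogenes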
[8] = target: T2, Endoribonuclease toxin MazF (Escherichia coli K-12, UniProt P0AE70); assay: MazF toxin RNase activators, dose response, biochemical, fluorescence, single-stranded RNA substrate, uHTS hits (AID 588481); format: functional
T2 sequence (P0AE70 whole entry): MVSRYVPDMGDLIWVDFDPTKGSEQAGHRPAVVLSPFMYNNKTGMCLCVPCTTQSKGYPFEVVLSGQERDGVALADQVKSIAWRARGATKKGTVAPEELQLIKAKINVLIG

[9] = target: T2, Endoribonuclease toxin MazF; assay: fluorescent RNA oligo signal without MazF, dose response, counter-screen for MazEF activator project, biochemical, fluorescence, single-stranded RNase substrate (AID 588502); format: functional
[10] = inhibitors of Vif binding to APOBEC3G peptide, primary screen, biochemical, TR-FRET, GST-Vif 1-94, biotin-A3G peptide, dose response retest (AID 1117319); format: functional;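 also: TR-FRET signal of purified GST-Vif binding a biotinylated A3G peptide; inhibitors lower the FRET signal by blocking Vif and A3G binding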
[11] = THP-1 cell cytotoxicity, dose response, cytotoxicity control for Vif-APOBEC3G degradation inhibitor project, THP-1 cells (AID 1117359); format: functional; conditions: Human immunodeficiency virus 1, THP-1
[12] = target: T3, Histone-lysine N-methyltransferase NSD2 (Homo sapiens, UniProt O96028); format: biochemical
T3 sequence (O96028 whole entry): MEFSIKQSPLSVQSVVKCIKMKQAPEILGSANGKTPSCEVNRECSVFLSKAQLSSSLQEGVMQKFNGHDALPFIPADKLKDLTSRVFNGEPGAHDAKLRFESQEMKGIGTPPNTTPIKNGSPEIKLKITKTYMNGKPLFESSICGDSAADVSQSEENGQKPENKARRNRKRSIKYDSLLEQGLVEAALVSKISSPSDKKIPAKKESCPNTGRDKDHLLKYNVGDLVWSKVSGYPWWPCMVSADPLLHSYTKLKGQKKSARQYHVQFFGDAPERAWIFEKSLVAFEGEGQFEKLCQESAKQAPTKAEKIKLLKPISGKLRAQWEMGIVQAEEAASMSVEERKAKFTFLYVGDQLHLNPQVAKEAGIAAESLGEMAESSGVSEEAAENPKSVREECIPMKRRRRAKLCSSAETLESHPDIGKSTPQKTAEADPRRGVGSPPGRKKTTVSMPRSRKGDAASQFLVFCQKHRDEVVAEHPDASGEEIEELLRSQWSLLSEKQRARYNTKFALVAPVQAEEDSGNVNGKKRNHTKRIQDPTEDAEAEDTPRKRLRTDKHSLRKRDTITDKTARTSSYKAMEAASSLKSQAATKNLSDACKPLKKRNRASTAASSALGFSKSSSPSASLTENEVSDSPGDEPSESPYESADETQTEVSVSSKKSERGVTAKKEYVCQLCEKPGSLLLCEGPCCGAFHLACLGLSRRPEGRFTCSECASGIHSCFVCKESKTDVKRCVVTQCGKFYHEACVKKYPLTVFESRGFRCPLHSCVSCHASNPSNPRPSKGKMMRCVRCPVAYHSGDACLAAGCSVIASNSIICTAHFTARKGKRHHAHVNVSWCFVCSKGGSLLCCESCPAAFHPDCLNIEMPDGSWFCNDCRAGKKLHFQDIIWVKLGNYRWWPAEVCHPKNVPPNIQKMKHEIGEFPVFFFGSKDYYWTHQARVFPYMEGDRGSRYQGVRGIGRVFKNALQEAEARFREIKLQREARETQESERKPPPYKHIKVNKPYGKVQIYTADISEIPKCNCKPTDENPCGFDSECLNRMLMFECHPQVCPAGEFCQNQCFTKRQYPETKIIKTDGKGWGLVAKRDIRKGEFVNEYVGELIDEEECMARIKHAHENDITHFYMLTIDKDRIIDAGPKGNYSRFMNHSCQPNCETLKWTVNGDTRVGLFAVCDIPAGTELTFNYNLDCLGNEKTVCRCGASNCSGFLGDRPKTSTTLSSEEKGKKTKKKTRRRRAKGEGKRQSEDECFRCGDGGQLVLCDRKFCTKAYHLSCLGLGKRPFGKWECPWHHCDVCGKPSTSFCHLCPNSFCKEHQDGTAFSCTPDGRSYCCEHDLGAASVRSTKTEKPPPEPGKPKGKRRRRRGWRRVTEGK

[13] = HEp-2 cell cytotoxicity, dose response, cytotoxicity control for RSV inhibitor project, HTS (AID 2410); format: functional; conditions: human respiratory syncytial virus
[14] = test system: Streptococcus sp. 'group A'; assay: growth inhibition of control SK(-) GAS strain, dose response, counter-screen for streptokinase expression inhibitor project, luminescence, kanamycin, BacTiterGlo, confirmation (AID 1900); format: functional, organism-based
[15] = test system: Streptococcus; assay: Group A Streptococcus viability loss, dose response, counter-screen for streptokinase expression inhibitor project, luminescence, BacTiterGlo (AID 1915); format: functional, organism-based;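 also: potency for reduction of bacterial viability or growth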
[16] = target: T4, Streptokinase A (Streptococcus pyogenes serotype M1, UniProt P10520); assay: S. pyogenes streptokinase expression inhibitors, potency, dose response, plasminogen activation absorbance, OD405 (AID 1914); format: functional, Streptococcus pyogenes M1 GAS;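 also: secreted streptokinase activity via plasminogen activation per viability signal from cell pellet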
T4 sequence (P10520 whole entry): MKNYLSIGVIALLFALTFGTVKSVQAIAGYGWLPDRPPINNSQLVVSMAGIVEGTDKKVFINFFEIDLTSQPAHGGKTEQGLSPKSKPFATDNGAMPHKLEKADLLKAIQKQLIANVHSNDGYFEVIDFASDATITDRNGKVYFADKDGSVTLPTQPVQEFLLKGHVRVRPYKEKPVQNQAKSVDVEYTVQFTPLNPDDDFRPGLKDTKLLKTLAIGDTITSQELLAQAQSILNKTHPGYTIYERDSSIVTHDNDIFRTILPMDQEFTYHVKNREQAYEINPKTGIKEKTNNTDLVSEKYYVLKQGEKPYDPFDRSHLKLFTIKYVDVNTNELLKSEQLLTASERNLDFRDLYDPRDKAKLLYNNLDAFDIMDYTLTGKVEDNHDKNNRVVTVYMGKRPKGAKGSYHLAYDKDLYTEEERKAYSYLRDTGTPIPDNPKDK

[17] = HeLa 4N DNA content increase, dose response, cell-based, IC50 (AID 1117351); format: functional
[18] = HeLa 2N DNA content increase, dose response, cell-based, IC50 (AID 1117349); format: functional
[19] = cells
[20] = target: Major prion protein (Homo sapiens, UniProt P04156); format: functional, cell-based
[21] = target: T5, Cytochrome P450 1A2 (Homo sapiens, UniProt P05177);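 also: PubChem cytochrome P450 panel assay, CYP1A2 panel member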
T5 sequence (P05177 whole entry): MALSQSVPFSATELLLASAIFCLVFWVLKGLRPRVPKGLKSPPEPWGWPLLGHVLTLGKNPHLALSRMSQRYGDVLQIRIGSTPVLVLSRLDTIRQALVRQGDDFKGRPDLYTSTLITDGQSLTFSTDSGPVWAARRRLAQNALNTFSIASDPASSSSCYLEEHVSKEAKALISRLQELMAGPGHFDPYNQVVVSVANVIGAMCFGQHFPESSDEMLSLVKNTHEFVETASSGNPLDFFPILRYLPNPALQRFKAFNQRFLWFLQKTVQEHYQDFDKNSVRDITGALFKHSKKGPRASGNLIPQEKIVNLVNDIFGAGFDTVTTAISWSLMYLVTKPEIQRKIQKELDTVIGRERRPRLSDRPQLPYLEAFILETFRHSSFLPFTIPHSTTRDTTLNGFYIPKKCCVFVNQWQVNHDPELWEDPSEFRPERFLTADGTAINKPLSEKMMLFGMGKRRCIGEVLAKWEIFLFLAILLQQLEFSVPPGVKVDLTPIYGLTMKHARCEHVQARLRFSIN

[22] = target: T6, Heat shock factor protein 1 (Mus musculus, UniProt P38532); assay: inhibition of MG132-induced HSE-luciferase signal, confirmation, cell-based, NIH3T3, luminescence, dose retest (AID 2382); format: functional;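 also: NIH3T3 fibroblasts with HSF1-driven luciferase reporter stressed by proteasome inhibitor MG132; luminescence from HSF1-driven luciferase expression after 8 hours of MG132 stress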
T6 sequence (P38532 whole entry): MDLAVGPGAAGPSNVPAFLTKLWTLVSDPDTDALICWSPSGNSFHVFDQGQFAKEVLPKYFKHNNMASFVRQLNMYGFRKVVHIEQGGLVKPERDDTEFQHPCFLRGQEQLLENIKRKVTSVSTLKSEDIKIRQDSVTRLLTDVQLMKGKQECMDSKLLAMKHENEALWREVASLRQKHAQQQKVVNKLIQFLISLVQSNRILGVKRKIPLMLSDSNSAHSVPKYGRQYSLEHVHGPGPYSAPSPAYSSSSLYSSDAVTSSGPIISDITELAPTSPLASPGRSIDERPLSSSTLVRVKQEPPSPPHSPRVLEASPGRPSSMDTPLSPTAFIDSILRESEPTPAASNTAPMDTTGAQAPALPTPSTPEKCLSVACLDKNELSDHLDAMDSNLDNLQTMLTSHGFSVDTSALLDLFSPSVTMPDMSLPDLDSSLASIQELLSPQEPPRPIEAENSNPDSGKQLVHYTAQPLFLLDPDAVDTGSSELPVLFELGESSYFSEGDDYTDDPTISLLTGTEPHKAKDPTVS

[23] = Luminescence Cell-Based Dose Retest to Confirm Inhibitors of Cancer Stem Cells. [Related pubchem assays (depositor defined):AID2717, AID2721]; format: functional; conditions: Homo sapiens
[24] = off-target signal loss in HeLa-CEM21 co-culture – HeLa F-luc CTL cells, cherry-picked, counter-screen for HIV-1 Env fusion inhibitor project, dose response (AID 652040); format: functional, cell-based;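 also: potency for signal decrease marking cytotoxic or nonspecific inhibition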
[25] = ZM109 Env clade C HIV-1 fusion inhibitors, dose response, HeLa effector, CEM target cells, luciferase, cherry-pick (AID 652058); format: functional, cell-based
[26] = inhibitors of clade B AD8 Env fusion, dose response, cell-based, cherry-pick (AID 652062); format: functional;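 also: luciferase signal from cell-cell fusion driven by HIV-1 clade B AD8 Env; potency is for inhibitors of fusion seen as a drop in luminescence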
[27] = inhibitors of HIV Env-driven cell fusion, dose response, cherry-pick (AID 652057); format: functional, cell-based

CC(C)(C)c1cc([N+](=O)[O-])cc(C(C)(C)C)c1O
EC50 [1]: 22 µM (active) | IC50 [2]: 2 µM (active) | EC50 [3]: > 150 µM (inconclusive) | EC50 [4]: > 150 µM (not active) | AC50 [5]: 4.45 µM (active) | EC50 [6]: > 29.9 µM (inactive) | EC50 [7]: > 75 µM (inconclusive)

Cc1oc(C)c2c(=O)ccc3c(c12)OC(N)=C(C#N)C3c1ccccc1 (stereo unspecified)
EC50 [8]: > 99 µM (inactive) | EC50 [9]: > 99 µM (inactive) | IC50 [10]: > 52.5 µM (active) | CC50 [11]: > 40 µM (active)

COc1ccc(-c2csc(Nc3ccc(S(=O)(=O)Nc4cc(C)on4)cc3)n2)cc1C
AC50 [12]: 11.9 µM (active) | CC50 [13]: 8.8 µM (active) | EC50 [14]: 5.7 µM (active) | EC50 [15]: 10.7 µM (active) | EC50 [16]: > 150 µM (not active)

C=CC(=O)Nc1cc2c(Nc3ccc(F)c(Cl)c3)ncnc2cc1OCCCN1CCOCC1 [CANERTINIB]
IC50 [17]: > 10 µM (inactive) | IC50 [18]: 8.87 µM (inactive)

Cc1c(Br)c(=O)oc2cc(OCC(=O)N3C[C@H]4C[C@@H](C3)c3cccc(=O)n3C4)ccc12
IC50 [19]: > 138 µM (inactive) | IC50 [20]: 8.34 µM (active)

O=C(Cn1ccc([N+](=O)[O-])n1)N1CCCc2ccccc21
IC50 [10]: > 100 µM (active)

Cc1cc(O)c2ccccc2c1O [VITAMIN K3H2]
IC50 [17]: > 10 µM (inactive) | IC50 [18]: > 10 µM (inactive)

CC(=O)NC(CSc1cc(C)nc2ccc(Br)cc12)C(=O)O (stereo unspecified)
IC50 [19]: > 138 µM (inactive) | IC50 [20]: 4.48 µM (active)

CCCc1nc(SCC(=O)NNC(=O)C2CCCCC2)c2ccccc2n1
IC50 [19]: > 138 µM (inactive) | IC50 [20]: 0.896 µM (active) | AC50 [21]: 15.8 µM (inconclusive)

COC(=O)COc1ccc2c(c1C)O/C(=C\c1ccco1)C2=O
IC50 [10]: > 100 µM (active) | EC50 [22]: > 195 µM (not active)

CCN(CC)CCCNC(=O)c1cc2c(Cl)nc3ccccc3c2s1
AC50 [12]: 16.8 µM (active) | AC50 [23]: 1.58 µM (active)

CC[C@@]1(C(=O)OC)N[C@H](CN(C)C(=O)c2ccc(C(C)(C)C)cc2)[C@@H]2C(=O)N(Cc3ccccc3)C(=O)[C@@H]21
AC50 [24]: 18.3 µM (active) | AC50 [25]: 8.17 µM (active) | AC50 [26]: 10.1 µM (active) | AC50 [27]: 6.06 µM (active)
